Six molecules from patent publication US20260206759A1, “PYRAZOL-5-ETHER COMPOUND, AND PREPARATION METHOD THEREFOR AND USE THEREOF” (CAC NANTONG CHEMICAL CO., LTD., priority 2023, published 2026) can be followed below.

What all share (type): in vivo
Assay [1] has as its system wheat powdery mildew (Blumeria graminis (DC.) Speer). Kind of assay: Whole-plant pot assay, control effect against wheat powdery mildew. As to conditions: spray on wheat leaves, inoculation 24 h after treatment, assessed 10 days after inoculation. The method, then: Various kinds of pathogens were tested with the compounds of the present application. Unless otherwise specified in the examples and the present application, the preparation method of samples is as follows: 10 mg of the compound was weighed and dissolved in 1 mL DMF to prepare a 10000 ppm stock solution, and the stock solution was diluted with 0.05% Tween-80 aqueous solution to the required concentrations for activity tests.
In this example, the control effects of the prepared pyrazol-5-ether compounds against wheat powdery mildew (Blumeria graminis (DC.) Speer) were tested using the following method.
A whole-plant pot assay was employed for screening. The pesticide formulation was uniformly sprayed onto wheat leaves at the first true leaf stage using a laryngeal atomizer, with three replicates per treatment. The treated plant was air-dried naturally indoors. At 24 hours post-treatment, wheat powdery mildew spores (collected approximately 10 days after inoculation) were evenly dusted onto the compound-treated wheat leaves. Disease assessment was conducted 10 days after spore inoculation when symptom development stabilized in the control group. The assessment results were recorded on a 100-0 scale, where ‘100’ indicates complete disease absence and ‘0’ represents maximum disease severity.

Assay [2] deals with cucumber powdery mildew (Erysiphe cichoracearum). Kind of assay: Whole-plant pot assay, control effect against cucumber powdery mildew. As to conditions: 2.5 ppm, foliar spray on cucumber seedlings, inoculation 24 h after treatment. As for the experimental part:
In this example, the control effects of the prepared pyrazol-5-ether compounds against cucumber powdery mildew (Erysiphe cichoracearum) were tested using the following method.
(§1) A whole-plant pot assay was employed for screening. […] Greenhouse-cultivated cucumber seedlings at the two-leaf stage served as test hosts for cucumber powdery mildew (Erysiphe cichoracearum). The compounds of the present application were sprayed on the leaves at designed concentrations, and lank controls sprayed with water were also set, in triplicate. At 24 hours post-treatment, pathogen inoculation was conducted. After inoculation, the plants were maintained in controlled environment chamber for constant humidity culture (temperature: 25° C. day/20° C. night, relative humidity: 95%-99%). After 24 hours of incubation, the plants were transferred to the greenhouse. Control effect assessments were conducted on the compounds when disease symptoms fully developed in controls (typically one week). The assessment results were recorded on a 100-0 scale, where ‘100’ indicates complete disease absence and ‘0’ represents maximum disease severity.

For assay [3], the system named is soybean rust (Phakopsora pachyrhizi). Kind of assay: Whole-plant pot assay, control effect against soybean rust. As to conditions: foliar spray on soybean plants, inoculation 24 h after treatment. The method, then: In this example, the control effects of the prepared pyrazol-5-ether compounds against soybean rust (Phakopsora pachyrhizi) were tested using the following method.
as §1, with “soybean plants” for “cucumber seedlings”, “soybean rust (Phakopsora pachyrhizi).” for “cucumber powdery mildew (Erysiphe cichoracearum).”, “blank” for “lank”, “recorded according to the A Manual of Assessment Keys for Plant Diseases compiled by the American Phytopathological Society” for “recorded”

Each structure is given as a SMILES string.

As to `CCN(C)/C=N/c1cc(C)c(Oc2cc(C(F)(F)F)nn2C)cc1C` [Compound 16, (E)-N′-[4-(1-methyl-3-trifluoromethyl-1H-pyrazol-5-yloxy)-2,5-dimethylphenyl]-N-ethyl-N-met hylformamidine], the “control effect against wheat powdery mildew” value in assay [1] (10 ppm) is on record as 81.48%; in assay [1] (40 ppm), 96.30%.

For the molecule `CCN(C)C=Nc1cc(C)c(Oc2c(C)c(C)nn2C)cc1C` [Compound 143], in assay [1] (10 ppm), the “control effect against wheat powdery mildew” value is 74.07%.

On to `CCN(C)C=Nc1cc(C)c(Oc2cc(C)nn2C)cc1Cl` [Compound 132], for which, in assay [1] (10 ppm), the “control effect against wheat powdery mildew” value amounted to 74.07%.

Consider `Cc1cc(Oc2cc(C(C)(C)C)nn2C)c(Cl)cc1/N=C/N1CCCC1` [KC2], for which the “control effect against wheat powdery mildew” value in assay [1] (10 ppm) and in assay [1] (40 ppm) was 0% each time. In addition, the “control effect against cucumber powdery mildew” value in assay [2] is given as 0%.

For `CCN(C)/C=N/c1cc(C)c(Oc2ccn(-c3ccc(Cl)cc3)n2)cc1C` [KC3], the “control effect against wheat powdery mildew” value in assay [1] (10 ppm) turned out to be 0%; in assay [1] (40 ppm), 59.26%. Also, the results for the “control effect against soybean rust” value in assay [3] (4 ppm) and in assay [3] (10 ppm) were 0% and 22%, respectively. The “control effect against cucumber powdery mildew” value in assay [2] came to 22.22%.

`CCN(C)/C=N/c1cc(Cl)c(Oc2cc(C(C)(C)C)nn2C)cc1C` [KC1]: the results for the “control effect against wheat powdery mildew” value in assay [1] (10 ppm) and in assay [1] (40 ppm) were 0% and 22.22%, respectively. In assay [2], the “control effect against cucumber powdery mildew” value is 0%.
